Results from paper PMC7718273 (Scientific Reports, 2020).
Entries after “also recorded” stand apart in the source; their conditions may differ.

Experiments:
[1] = system: diet-induced obese mice; set-up: method as in PMID 27689014; conditions: cited from earlier work
[2] = system: CDAHFD NASH mouse model; experiment: In vivo study using CDAHFD mice (NASH model); set-up: species or system C57BL/6J mice; conditions: positive control 3 mg/kg p.o. for 10 weeks
Experimental: C57BL/6J mice were fed normal chow diet (n = 5) or choline-deficient, L-amino acid-defined, high-fat diet (CDAHFD) for 4 weeks to induce NASH (n = 8–10/group). […] (a) Relative FAP activity was assessed by FRET-quench and serum FGF21 level at week 14. […] (c) Steatosis scores ranged from 0 to 3 (normal = 0, minimal = 1, moderate = 2, marked = 3) were determined. Hepatic steatosis and fibrosis (Picrosirius red stain) were analyzed in a blinded manner or by digital image analyzer. (d–e) Histological evaluations of liver tissue were performed in each group. Paraffin-embedded liver sections were stained with H&E (d) and Sirius red (e). Representative photographs of each group were presented. Images were obtained at 100x (Scale bar = 50 µm).
Male C57BL/6J mice (5 weeks of age) were fed with a CDAHFD consisting of 60% kcal fat and 0.1% methionine. […] For the CDAHFD model, compound treatments were started at the beginning of week 4 on the diet and continued until week 14. […] Liver tissue was then collected. All other measurements were done similarly as described above. Staining was performed using H&E and Picrosirius red as described previously. Areas of positive Sirius red were quantified by computer-based morphometric analysis.

[3] = system: ob/ob mice; experiment: Acute study using ob/ob mice: blood glucose and intact hFGF21; conditions: hFGF21 0.1 mg/kg i.p. alone
Experimental: Blood was collected at the indicated time points. (a) Nonfasting blood glucose levels were measured at the indicated time points. […] (c) Plasma intact hFGF21 levels were measured using ELISA kit at 1, 3, 6, and 9 h. All data are the means ± S.D. *P < 0.05, **P < 0.01 and *** P < 0.001 vs. vehicle group.
Blood was promptly collected by orbital bleeding that was allowed to clot, and supernatant was collected after centrifugation at 4 °C at 3000 rpm. Serum intact FGF21 concentrations were measured by intact hFGF21 ELISA (Alpco, Keewaydin Dr, Salem, NH, catalog no. 43-FGFHU-E01)[29].

[4] = animals administered with Talabostat alone

Molecule: CC(C)[C@H](N)C(=O)N1CCC[C@H]1B(O)O [Talabostat]
- adiposity [1, 4]: decreased
- body weight [1, 4]: decreased
- food consumption [1, 4]: decreased
- endogenous intact FGF21 level ([1]; diet-induced obese mice): increased
- insulin resistance / insulin sensitivity ([1]; diet-induced obese mice): improved insulin resistance; also recorded: improved insulin sensitivity

Molecule: O=C(O)c1cc(F)c2nc(N3[C@@H]4CC[C@H]3C[C@@H](OCc3c(-c5ccccc5OC(F)(F)F)noc3C3CC3)C4)sc2c1 [LJN, Tropifexor, reference compound]
- all parameters of the CDAHFD study [2]: All parameters showed improvements

B1: hFGF21: full-length recombinant human FGF21 from Cell Science, given i.p. alone or with BR103354 (protein, UniProt Q9NSA1 29-209, looked up)
Fibroblast growth factor 21: HPIPDSSPLLQFGGQVRQRYLYTDDAQQTEAHLEIREDGTVGGAADQSPESLLQLKALKPGVIQILGVKTSRFLCQRPDGALYGSLHFDPEACSFRELLLEDGYNVYQSEAHGLPLHLPGNKSPHRDPAPRGPARFLPLPGLPPALPEPPGILAPQPPDVGSSDPLSMVGPSQGRSPSYAS
- decrease of blood glucose AUC [3]: about 20%
- nonfasting blood glucose level, maximum average reduction to ([3]; 3 h, starting from 340 mg/dL): 230 mg/dL
